What all share (experiment): biochemical
Common to all, as to set-up: Eurofins DiscoverX kinase panel, competitive binding assay at 1 uM, percent of DMSO control
Common to all, as to conditions: competitive binding, percent of DMSO control

The target of one assay is T1, p38 γ (Homo sapiens, UniProt P53778).
T1 construct: gene MAPK12
T1 sequence (P53778 1-367): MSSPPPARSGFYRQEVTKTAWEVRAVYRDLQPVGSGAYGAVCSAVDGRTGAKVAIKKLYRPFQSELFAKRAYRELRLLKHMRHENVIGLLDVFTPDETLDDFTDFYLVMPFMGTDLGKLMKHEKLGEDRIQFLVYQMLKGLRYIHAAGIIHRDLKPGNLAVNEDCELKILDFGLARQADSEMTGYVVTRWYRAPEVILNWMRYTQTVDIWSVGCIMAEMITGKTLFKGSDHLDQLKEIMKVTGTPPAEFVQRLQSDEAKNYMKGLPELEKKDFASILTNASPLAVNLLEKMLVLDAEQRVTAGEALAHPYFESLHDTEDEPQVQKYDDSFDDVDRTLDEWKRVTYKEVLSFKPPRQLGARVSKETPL
The essentials: (§1)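 Single-point profiling at 1 µM compound in a competition-binding format against 96 kinases, read out as POC relative to control; n = 1.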

The target of the next assay is KDR (Homo sapiens, UniProt P35968). Summed up: as §1
For the next assay, the target named is DYRK1a (Homo sapiens, UniProt Q13627). The essentials: as §1
For the next assay, the target named is CDK18 (Homo sapiens, UniProt Q07002). The essentials:
as §1

The target in the next assay is T2, PKD2 (Homo sapiens, UniProt Q9BZL6).
T2 construct: gene PRKD2
T2 sequence (Q9BZL6 1-878): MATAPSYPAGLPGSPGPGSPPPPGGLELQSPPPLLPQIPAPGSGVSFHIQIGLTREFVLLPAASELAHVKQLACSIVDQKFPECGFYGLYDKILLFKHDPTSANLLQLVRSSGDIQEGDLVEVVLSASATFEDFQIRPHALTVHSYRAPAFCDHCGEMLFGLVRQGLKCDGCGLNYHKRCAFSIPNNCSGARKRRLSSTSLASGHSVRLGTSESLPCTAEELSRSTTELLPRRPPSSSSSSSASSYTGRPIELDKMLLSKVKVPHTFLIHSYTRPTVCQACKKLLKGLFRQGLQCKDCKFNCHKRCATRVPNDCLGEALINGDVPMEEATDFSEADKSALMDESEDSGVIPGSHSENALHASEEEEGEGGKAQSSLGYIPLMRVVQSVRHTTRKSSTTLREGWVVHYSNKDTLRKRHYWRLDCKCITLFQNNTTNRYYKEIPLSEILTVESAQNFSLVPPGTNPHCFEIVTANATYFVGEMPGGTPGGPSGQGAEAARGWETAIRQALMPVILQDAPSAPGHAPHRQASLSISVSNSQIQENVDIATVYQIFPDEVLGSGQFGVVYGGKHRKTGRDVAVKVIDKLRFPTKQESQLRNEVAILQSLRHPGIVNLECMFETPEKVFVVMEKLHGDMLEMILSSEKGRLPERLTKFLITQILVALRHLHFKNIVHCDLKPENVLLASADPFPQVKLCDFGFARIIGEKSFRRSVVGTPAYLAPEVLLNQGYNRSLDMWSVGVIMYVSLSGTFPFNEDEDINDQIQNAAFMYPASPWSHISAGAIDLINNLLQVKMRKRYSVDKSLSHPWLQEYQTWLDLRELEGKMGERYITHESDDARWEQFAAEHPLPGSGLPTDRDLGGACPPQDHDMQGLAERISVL
The essentials:
as §1

The mark [1] stands for this setting: read-out: Kinome Profiling performed by Eurofins DiscoverX / AM-0277, 1.0 µM / POC.
Where [2] appears, read: read-out: Kinome Profiling performed by Eurofins DiscoverX / AM-1882, 1.0 µM / POC.
[3] abbreviates: read-out: Kinome Profiling performed by Eurofins DiscoverX / AM-5308, 1.0 µM / POC.

Where two headings read alike, the source gives them in different places.

CDK18, sequence (Q07002 whole entry): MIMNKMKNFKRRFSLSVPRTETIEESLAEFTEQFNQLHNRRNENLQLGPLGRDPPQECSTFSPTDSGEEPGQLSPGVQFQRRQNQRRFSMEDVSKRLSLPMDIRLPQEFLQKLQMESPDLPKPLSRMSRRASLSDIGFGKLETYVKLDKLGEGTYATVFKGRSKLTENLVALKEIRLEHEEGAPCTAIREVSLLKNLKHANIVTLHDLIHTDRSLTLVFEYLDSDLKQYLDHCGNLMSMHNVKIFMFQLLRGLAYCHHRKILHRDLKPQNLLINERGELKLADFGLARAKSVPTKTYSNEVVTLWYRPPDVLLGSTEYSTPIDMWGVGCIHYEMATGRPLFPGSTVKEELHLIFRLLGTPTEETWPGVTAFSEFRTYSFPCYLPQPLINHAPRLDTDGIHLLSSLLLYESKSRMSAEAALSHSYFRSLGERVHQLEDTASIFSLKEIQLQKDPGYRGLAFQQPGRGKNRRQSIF
KDR, sequence (P35968 whole entry): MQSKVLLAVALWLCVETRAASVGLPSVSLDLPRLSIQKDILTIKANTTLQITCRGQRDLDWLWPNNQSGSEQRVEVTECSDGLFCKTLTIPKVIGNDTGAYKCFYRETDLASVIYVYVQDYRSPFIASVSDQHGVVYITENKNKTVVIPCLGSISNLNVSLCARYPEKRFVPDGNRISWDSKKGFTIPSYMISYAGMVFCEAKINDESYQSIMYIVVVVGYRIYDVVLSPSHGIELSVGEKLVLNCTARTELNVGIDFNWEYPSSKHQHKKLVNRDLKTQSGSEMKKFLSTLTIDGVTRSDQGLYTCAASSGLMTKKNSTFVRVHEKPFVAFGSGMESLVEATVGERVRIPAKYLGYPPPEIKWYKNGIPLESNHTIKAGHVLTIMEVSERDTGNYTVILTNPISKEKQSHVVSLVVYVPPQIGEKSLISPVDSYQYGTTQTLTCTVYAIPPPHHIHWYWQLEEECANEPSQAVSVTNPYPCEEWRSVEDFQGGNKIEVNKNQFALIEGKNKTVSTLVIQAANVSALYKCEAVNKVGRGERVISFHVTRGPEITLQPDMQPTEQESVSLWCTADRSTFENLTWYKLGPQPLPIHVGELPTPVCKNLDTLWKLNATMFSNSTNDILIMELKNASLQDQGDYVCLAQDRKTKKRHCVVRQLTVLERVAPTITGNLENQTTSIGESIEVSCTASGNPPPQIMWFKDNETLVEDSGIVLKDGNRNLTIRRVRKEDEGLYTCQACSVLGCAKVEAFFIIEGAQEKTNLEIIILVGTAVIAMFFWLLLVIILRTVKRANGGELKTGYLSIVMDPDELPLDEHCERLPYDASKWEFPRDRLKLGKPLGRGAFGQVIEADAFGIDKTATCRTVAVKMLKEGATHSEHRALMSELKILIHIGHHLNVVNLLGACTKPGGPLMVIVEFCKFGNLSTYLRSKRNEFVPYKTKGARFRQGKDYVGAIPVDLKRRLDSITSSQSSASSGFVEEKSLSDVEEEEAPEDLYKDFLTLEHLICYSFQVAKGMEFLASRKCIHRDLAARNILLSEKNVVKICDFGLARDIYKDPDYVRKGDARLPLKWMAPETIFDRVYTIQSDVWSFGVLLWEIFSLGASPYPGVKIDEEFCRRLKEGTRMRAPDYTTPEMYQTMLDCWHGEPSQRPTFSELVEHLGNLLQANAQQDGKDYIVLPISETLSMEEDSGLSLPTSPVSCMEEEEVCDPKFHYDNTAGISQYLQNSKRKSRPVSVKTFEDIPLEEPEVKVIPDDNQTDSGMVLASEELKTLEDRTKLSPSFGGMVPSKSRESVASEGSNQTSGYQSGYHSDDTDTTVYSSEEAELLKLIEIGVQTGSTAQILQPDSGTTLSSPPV

`CC(C)(CO)Nc1ccc(C(=O)Nc2cccc(S(=O)(=O)C3CCCC3)c2)c(N2CCC3(CC2)CC3)n1` [AM-0277]: the remaining activity at 1 µM on p38 γ (setting [1]) is 100%; at KDR (setting [1]), 90%; at DYRK1a (setting [1]) it was 100%; on CDK18 (setting [1]) it was 78%; on PKD2 (setting [1]), 100%.
On to `CC(C)(C)NS(=O)(=O)c1cccc(NC(=O)c2ccc(S(=O)(=O)NC(C)(C)C)cc2N2CCC3(CC2)CC3)c1` [AM-1882], for which the remaining activity at 1 µM on p38 γ (setting [2]) was found to be 100%; on KDR (setting [2]), 80.5%; at DYRK1a (setting [2]), 81%; on CDK18 (setting [2]), 76%; at PKD2 (setting [2]), 64.5%.
`C[C@@H]1CN(c2cccc(NC(=O)c3ccc(NS(=O)(=O)CCO)cc3N3CCC4(CC3)CC4)n2)CCO1` [AM-5308]: the remaining activity at 1 µM on p38 γ (setting [3]) is 76.5%; at KDR (setting [3]) it was 53%; on DYRK1a (setting [3]) it was 100%; on CDK18 (setting [3]), 94%; on PKD2 (setting [3]), 100%.

For the origin of these results see article PMC10824666 (Nature Cancer, 2023).
